{
  "source": "patent US20240254143A1",
  "about": "“OREXIN RECEPTOR AGONISTS AND USES THEREOF” (JAZZ PHARMACEUTICALS IRELAND LIMITED, priority 2021, published 2024)",
  "data": [
    {"target": "T1, human recombinant OX2 (hOX2) receptor (Homo sapiens, UniProt O43614)", "T1 construct": "host or cells: CHO cells", "T1 sequence (O43614 1-444)": "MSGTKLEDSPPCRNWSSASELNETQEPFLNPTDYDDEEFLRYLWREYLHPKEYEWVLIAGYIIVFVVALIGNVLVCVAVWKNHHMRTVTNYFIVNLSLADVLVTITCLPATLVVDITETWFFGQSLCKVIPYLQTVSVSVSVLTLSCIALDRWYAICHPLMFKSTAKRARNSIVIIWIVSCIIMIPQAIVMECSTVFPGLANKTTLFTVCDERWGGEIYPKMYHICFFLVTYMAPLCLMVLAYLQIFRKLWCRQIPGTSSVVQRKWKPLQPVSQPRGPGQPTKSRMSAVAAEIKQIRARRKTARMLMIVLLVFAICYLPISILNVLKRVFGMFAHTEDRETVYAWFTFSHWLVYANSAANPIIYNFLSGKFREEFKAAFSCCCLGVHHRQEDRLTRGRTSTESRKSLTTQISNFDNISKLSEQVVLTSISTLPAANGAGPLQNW", "test": "IP-1 accumulation assay (IP-One HTRF) in hOX2-CHO cells", "format": "cell-based", "conditions": "60 min at 37° C., mean of at least two independent experiments, read-out: EC50_OX2R Category", "summary_of_the_method": "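hOX2 receptor expressed in CHO cells, seeded in suspension in HBSS with 20 mM HEPES pH 7.4, LiCl and 0.1% BSA; compounds tested as 11-point CRC (0.5% DMSO final), 60 min at 37 °C. IP-1 read by HTRF (665/615 ratio) after 60 min lysis at room temperature; response as % of maximal OX-A response, EC50 by four-parameter logistic fit, mean of ≥2 experiments in duplicate.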", "units": {"EC50": "nM"}, "values": [
      {"smiles": "C[C@@H]1C[C@@]2(COCC(=O)N2)[C@H](Cc2cccc(-c3cc(F)cc(F)c3)c2F)N1C(=O)[C@H]1C[C@@H](F)C1", "note": "[Example 82, (1S,3R,5S)-3-methyl-2-[(1s,3s)-3-fluorocyclobutanecarbonyl]-1-({2,3′,5′-trifluoro-[1,1′-biphenyl]-3-yl}methyl)-9-oxa-2,6-diazaspiro[4.5]decan-7-one]", "EC50": "< 100"},
      {"smiles": "C[C@@H]1C[C@@]2(COCC(=O)N2)[C@H](Cc2cccc(-c3cc(F)cc(F)c3)c2F)N1C(=O)OCC(F)F", "note": "[Example 83, 2,2-difluoroethyl (1S,3R,5S)-3-methyl-7-oxo-1-({2,3′,5′-trifluoro-[1,1′-biphenyl]-3-yl}methyl)-9-oxa-2,6-diazaspiro[4.5]decane-2-carboxylate]", "EC50": "100 to 1000"},
      {"smiles": "C[C@@H]1C[C@@]2(COCC(=O)N2)[C@H](Cc2cccc(-c3cc(F)cc(F)c3)c2F)N1C(=O)CC(F)(F)F", "note": "[Example 84, (1S,3R,5S)-3-methyl-1-({2,3′,5′-trifluoro-[1,1′-biphenyl]-3-yl}methyl)-2-(3,3,3-trifluoropropanoyl)-9-oxa-2,6-diazaspiro[4.5]decan-7-one]", "EC50": "100 to 1000"},
      {"smiles": "COC(=O)N1[C@H](C)C[C@@]2(COCC(=O)N2)[C@@H]1Cc1cccc(-c2cc(F)cc(F)c2)c1F", "note": "[Example 85, Methyl (1S,3R,5S)-3-methyl-7-oxo-1-({2,3′,5′-trifluoro-[1,1′-biphenyl]-3-yl}methyl)-9-oxa-2,6-diazaspiro[4.5]decane-2-carboxylate]", "EC50": "> 10000"},
      {"smiles": "C[C@@H]1C[C@@]2(COCC(=O)N2)[C@H](Cc2cccc(-c3cc(F)cc(F)c3)c2F)N1C(=O)C1CC(F)(F)C1", "note": "[Example 86, (1S,3R,5S)-2-(3,3-difluorocyclobutanecarbonyl)-3-methyl-1-({2,3′,5′-trifluoro-[1,1′-biphenyl]-3-yl}methyl)-9-oxa-2,6-diazaspiro[4.5]decan-7-one]", "EC50": "100 to 1000"},
      {"smiles": "CCN(C)C(=O)N1[C@H](C)C[C@@]2(COCC(=O)N2)[C@@H]1Cc1cccc(-c2cc(F)cc(F)c2)c1F", "note": "[Example 87, (1S,3R,5S)-N-ethyl-N,3-dimethyl-7-oxo-1-({2,3′,5′-trifluoro-[1,1′-biphenyl]-3-yl}methyl)-9-oxa-2,6-diazaspiro[4.5]decane-2-carboxamide]", "EC50": "100 to 1000"},
      {"smiles": "COCC(=O)N1[C@H](C)C[C@@]2(COCC(=O)N2)[C@@H]1Cc1cccc(-c2cc(F)cc(F)c2)c1F", "note": "[Example 88, (1S,3R,5S)-2-(2-methoxyacetyl)-3-methyl-1-({2,3′,5′-trifluoro-[1,1′-biphenyl]-3-yl}methyl)-9-oxa-2,6-diazaspiro[4.5]decan-7-one]", "EC50": "1000 to 10000"},
      {"smiles": "C[C@@H]1C[C@@]2(COCC(=O)N2)[C@H](Cc2cccc(-c3cc(F)cc(F)c3)c2F)N1C(=O)[C@H]1CCO1", "note": "[Example 89, (1S,3R,5S)-3-methyl-2-[(2R)-oxetane-2-carbonyl]-1-({2,3′,5′-trifluoro-[1,1′-biphenyl]-3-yl}methyl)-9-oxa-2,6-diazaspiro[4.5]decan-7-one]", "EC50": "100 to 1000"},
      {"smiles": "C[C@@H]1C[C@@]2(COCC(=O)N2)[C@H](Cc2cccc(-c3cc(F)cc(F)c3)c2F)N1S(C)(=O)=O", "note": "[Example 93, (1S,3R,5S)-2-methanesulfonyl-3-methyl-1-({2,3′,5′-trifluoro-[1,1′-biphenyl]-3-yl}methyl)-9-oxa-2,6-diazaspiro[4.5]decan-7-one]", "EC50": "> 10000"}
    ]}
  ]
}
